Earlier results in patent US20240207239A1, “COMPOSITION AND PREPARATION METHOD THEREFOR” (priority 2021, published 2024).

Conditions: range of pH 1-12

solubility in aqueous medium: almost insoluble
SMILES: CNC(=O)c1ccc(N2C(=S)N(c3cnc(C#N)c(C(F)(F)F)c3)C(=O)C23CCC3)cc1F [Apalutamide, 4-[7-(6-cyano-5-trifluoromethylpyridine-3-yl)-8-oxo-6-thioxo-5,7-diazaspiro[3. 4]octan-5-yl]-2-fluoro-N-methylbenzamide]
